In ChEMBL document CHEMBL3044818, “Fungicide resistance status in French populations of the wheat eyespot fungi Oculimacula acuformis and Oculimacula yallundae” (Pest Manag Sci, 2013):
Converted amounts (≈) assume the structure as drawn.

Tests used:
Oculimacula yallundae [1] = assay: Resistance index, ratio of EC50 for sterol 14alpha-demethylation inhibitor-resistant Oculimacula yallundae MDR to EC50 for sterol 14alpha-demethylation inhibitor-resistant Oculimacula yallundae TriR1 by germ tube elongation assay; type: functional
Oculimacula yallundae [2] = assay: Resistance index, ratio of EC50 for sterol 14alpha-demethylation inhibitor-resistant Oculimacula yallundae MDR to EC50 for wild type Oculimacula yallundae TriS by germ tube elongation assay; type: functional
Oculimacula yallundae [3] = assay: Resistance index, ratio of EC50 for sterol 14alpha-demethylation inhibitor-resistant Oculimacula yallundae TriR2 to EC50 for sterol 14alpha-demethylation inhibitor-resistant Oculimacula yallundae TriR1 by germ tube elongation assay; type: functional
Oculimacula yallundae [4] = assay: Resistance index, ratio of EC50 for sterol 14alpha-demethylation inhibitor-resistant Oculimacula yallundae TriR2 to EC50 for wild type Oculimacula yallundae TriS by germ tube elongation assay; type: functional
Oculimacula yallundae [5] = assay: Resistance index, ratio of EC50 for sterol 14alpha-demethylation inhibitor-resistant Oculimacula yallundae TriR1 to EC50 for wild type Oculimacula yallundae TriS by germ tube elongation assay; type: functional
Oculimacula yallundae [6] = assay: Fungicidal activity against Oculimacula yallundae assessed as inhibition of germ tube elongation incubated at 19 degC in dark for 48 hr; type: functional, organism-based
Oculimacula yallundae [7] = assay: Resistance index, ratio of EC50 for sterol 14alpha-demethylation inhibitor-resistant Oculimacula yallundae TriR2 to EC50 for wild type Oculimacula yallundae TriS by mycelial growth inhibition assay; type: functional
Oculimacula yallundae [8] = assay: Resistance index, ratio of EC50 for sterol 14alpha-demethylation inhibitor-resistant Oculimacula yallundae TriR2 to EC50 for sterol 14alpha-demethylation inhibitor-resistant Oculimacula yallundae TriR1 by mycelial growth inhibition assay; type: functional
Oculimacula yallundae [9] = assay: Resistance index, ratio of EC50 for sterol 14alpha-demethylation inhibitor-resistant Oculimacula yallundae MDR to EC50 for wild type Oculimacula yallundae TriS by mycelial growth inhibition assay; type: functional
Oculimacula yallundae [10] = assay: Resistance index, ratio of EC50 for sterol 14alpha-demethylation inhibitor-resistant Oculimacula yallundae MDR to EC50 for sterol 14alpha-demethylation inhibitor-resistant Oculimacula yallundae TriR1 by mycelial growth inhibition assay; type: functional
Oculimacula yallundae [11] = assay: Resistance index, ratio of EC50 for sterol 14alpha-demethylation inhibitor-resistant Oculimacula yallundae TriR1 to EC50 for wild type Oculimacula yallundae TriS by mycelial growth inhibition assay; type: functional
[12] = Selectivity index, ratio of EC50 for Oculimacula acuformis to EC50 for Oculimacula yallundae in presence of 10 g glucose by mycelial growth inhibition assay; type: functional
Oculimacula yallundae [13] = assay: Fungicidal activity against Oculimacula yallundae assessed as inhibition of mycelial growth in presence of 10 g glucose incubated at 19 degC in dark for 4 weeks; type: functional, organism-based; settings: 672 h
Oculimacula acuformis [14] = assay: Fungicidal activity against Oculimacula acuformis assessed as inhibition of mycelial growth in presence of 10 g glucose incubated at 19 degC in dark for 4 weeks; type: functional, organism-based; settings: 672 h
Oculimacula acuformis [15] = assay: Fungicidal activity against Oculimacula acuformis assessed as inhibition of germ tube elongation incubated at 19 degC in dark for 48 hr; type: functional, organism-based
Oculimacula yallundae [16] = assay: Resistance index, ratio of EC50 for prochloraz-resistant Oculimacula yallundae isolate ProR1 to EC50 for prochloraz-susceptible Oculimacula yallundae isolate ProS by germ tube elongation inhibition assay; type: functional
Oculimacula yallundae [17] = assay: Fungicidal activity against prochloraz-susceptible Oculimacula yallundae isolate ProS assessed as inhibition of germ tube elongation incubated at 19 degC in dark for 48 hr; type: functional, organism-based
[18] = Selectivity index, ratio of EC50 for Oculimacula acuformis to EC50 for Oculimacula yallundae by germ tube elongation inhibition assay; type: functional
Oculimacula yallundae [19] = assay: Resistance index, ratio of EC50 for prochloraz-resistant Oculimacula yallundae isolate ProR2 to EC50 for prochloraz-susceptible Oculimacula yallundae isolate ProS by germ tube elongation inhibition assay; type: functional

Compound: CC(C)CC(C)c1sccc1NC(=O)c1cn(C)nc1C(F)(F)F (configuration not stated) [PENTHIOPYRAD]
- Ratio EC50 (Oculimacula yallundae [1]): 12
- Ratio EC50 (Oculimacula yallundae [2]): 12
- Ratio EC50 (Oculimacula yallundae [3]): 1
- Ratio EC50 (Oculimacula yallundae [4]): 1
- Ratio EC50 (Oculimacula yallundae [5]): 1
- EC50 (Oculimacula yallundae [6]): 0.02 mg/L (≈ 0.0556 µM)

Compound: Cc1cccc(N(C)C(=S)Oc2ccc3ccccc3c2)c1 [TOLNAFTATE]
- Ratio EC50 (Oculimacula yallundae [1]): >25
- Ratio EC50 (Oculimacula yallundae [2]): >30
- Ratio EC50 (Oculimacula yallundae [3]): 0.8
- Ratio EC50 (Oculimacula yallundae [4]): 1
- Ratio EC50 (Oculimacula yallundae [5]): 1.3
- EC50 (Oculimacula yallundae [6]): 0.3 mg/L (≈ 0.976 µM)

Compound: COc1cc(C)c(C(=O)c2c(OC)ccc(Br)c2C)c(OC)c1OC [METRAFENONE]
- Ratio EC50 (Oculimacula yallundae [7]): 1.3
- Ratio EC50 (Oculimacula yallundae [8]): 1.3
- Ratio EC50 (Oculimacula yallundae [9]): 1.1
- Ratio EC50 (Oculimacula yallundae [10]): 1.1
- Ratio EC50 (Oculimacula yallundae [11]): 1
- Ratio EC50 [12]: 0.1
- EC50 (Oculimacula yallundae [13]): 0.8 mg/L
- EC50 (Oculimacula acuformis [14]): 0.08 mg/L
- EC50 (Oculimacula yallundae [6]): > 25 mg/L
- EC50 (Oculimacula acuformis [15]): > 25 mg/L

Compound: CC(C)(C)C(O)(CCc1ccc(Cl)cc1)Cn1cncn1 (configuration not stated) [TEBUCONAZOLE]
- Ratio EC50 (Oculimacula yallundae [7]): 30
- Ratio EC50 (Oculimacula yallundae [8]): 1.5
- Ratio EC50 (Oculimacula yallundae [9]): 25
- Ratio EC50 (Oculimacula yallundae [16]): 3
- EC50 (Oculimacula yallundae [17]): 0.5 mg/L (≈ 1.62 µM)
- Ratio EC50 (Oculimacula yallundae [1]): 4
- Ratio EC50 (Oculimacula yallundae [2]): 267
- Ratio EC50 (Oculimacula yallundae [3]): 1.5
- Ratio EC50 (Oculimacula yallundae [4]): 100
- Ratio EC50 (Oculimacula yallundae [5]): 67
- Ratio EC50 (Oculimacula yallundae [10]): 1.3
- Ratio EC50 (Oculimacula yallundae [11]): 20
- Ratio EC50 [12]: 20
- EC50 (Oculimacula yallundae [13]): 0.2 mg/L
- EC50 (Oculimacula acuformis [14]): 4 mg/L
- Ratio EC50 [18]: 17
- EC50 (Oculimacula yallundae [6]): 0.03 mg/L (≈ 0.0975 µM)
- EC50 (Oculimacula acuformis [15]): 0.5 mg/L (≈ 1.62 µM)
- Ratio EC50 (Oculimacula yallundae [19]): 5

Compound: COC(=O)Nc1nc2ccccc2[nH]1 [CARBENDAZIM]
- Ratio EC50 [12]: 1.3
- EC50 (Oculimacula yallundae [13]): 0.03 mg/L
- EC50 (Oculimacula acuformis [14]): 0.04 mg/L
- Ratio EC50 [18]: 1
- EC50 (Oculimacula yallundae [6]): 0.04 mg/L (≈ 0.209 µM)
- EC50 (Oculimacula acuformis [15]): 0.04 mg/L (≈ 0.209 µM)

Compound: Cc1cc(C)nc(Nc2ccccc2)n1 [PYRIMETHANIL]
- Ratio EC50 (Oculimacula yallundae [1]): 12
- Ratio EC50 (Oculimacula yallundae [2]): 12
- Ratio EC50 (Oculimacula yallundae [3]): 1.2
- Ratio EC50 (Oculimacula yallundae [4]): 1.2
- Ratio EC50 (Oculimacula yallundae [5]): 1
- EC50 (Oculimacula yallundae [6]): 0.1 mg/L (≈ 0.502 µM)

Compound: CC(Cc1ccc(C(C)(C)C)cc1)CN1C[C@@H](C)O[C@@H](C)C1 (some centres not stated) [FENPROPIMORPH]
- Ratio EC50 [12]: 0.12
- EC50 (Oculimacula yallundae [13]): 15 mg/L
- EC50 (Oculimacula acuformis [14]): 1.8 mg/L
- Ratio EC50 [18]: 0.15
- EC50 (Oculimacula yallundae [6]): 0.4 mg/L (≈ 1.32 µM)
- EC50 (Oculimacula acuformis [15]): 0.06 mg/L (≈ 0.198 µM)

Compound: CN(C/C=C/C#CC(C)(C)C)Cc1cccc2ccccc12 [TERBINAFINE]
- Ratio EC50 [12]: 0.8
- EC50 (Oculimacula yallundae [13]): 0.3 mg/L
- EC50 (Oculimacula acuformis [14]): 0.25 mg/L
- Ratio EC50 [18]: 1.3
- EC50 (Oculimacula yallundae [6]): 0.008 mg/L (≈ 0.0275 µM)
- EC50 (Oculimacula acuformis [15]): 0.01 mg/L (≈ 0.0343 µM)

Compound: CC1=C(C(=O)Nc2ccccc2)SCCO1 [CARBOXIN]
- Ratio EC50 (Oculimacula yallundae [1]): 1.4
- Ratio EC50 (Oculimacula yallundae [2]): 1.4
- Ratio EC50 (Oculimacula yallundae [3]): 1.2
- Ratio EC50 (Oculimacula yallundae [4]): 1.2
- Ratio EC50 (Oculimacula yallundae [5]): 1
- EC50 (Oculimacula yallundae [6]): 2.5 mg/L (≈ 10.6 µM)

Compound: CCCOC/C(=N\c1ccc(Cl)cc1C(F)(F)F)n1ccnc1 [TRIFLUMIZOLE]
- Ratio EC50 (Oculimacula yallundae [16]): 0.1
- EC50 (Oculimacula yallundae [17]): 9 mg/L (≈ 26 µM)
- Ratio EC50 (Oculimacula yallundae [1]): 1.1
- Ratio EC50 (Oculimacula yallundae [2]): 243
- Ratio EC50 (Oculimacula yallundae [3]): 0.3
- Ratio EC50 (Oculimacula yallundae [4]): 71
- Ratio EC50 (Oculimacula yallundae [5]): 214
- Ratio EC50 [12]: > 30
- EC50 (Oculimacula yallundae [13]): 0.8 mg/L
- EC50 (Oculimacula acuformis [14]): > 25 mg/L
- Ratio EC50 [18]: 129
- EC50 (Oculimacula yallundae [6]): 0.07 mg/L (≈ 0.202 µM)
- EC50 (Oculimacula acuformis [15]): 9 mg/L (≈ 26 µM)
- Ratio EC50 (Oculimacula yallundae [19]): 0.8

Compound: Cc1cc(C2CC2)nc(Nc2ccccc2)n1 [CYPRODINIL]
- Ratio EC50 (Oculimacula yallundae [1]): 13
- Ratio EC50 (Oculimacula yallundae [2]): 13
- Ratio EC50 (Oculimacula yallundae [3]): 1
- Ratio EC50 (Oculimacula yallundae [4]): 1
- Ratio EC50 (Oculimacula yallundae [5]): 1
- Ratio EC50 [12]: 0.12
- EC50 (Oculimacula yallundae [13]): 0.5 mg/L
- EC50 (Oculimacula acuformis [14]): 0.06 mg/L
- Ratio EC50 [18]: 1
- EC50 (Oculimacula yallundae [6]): 0.004 mg/L (≈ 0.0178 µM)
- EC50 (Oculimacula acuformis [15]): 0.004 mg/L (≈ 0.0178 µM)

Compound: CC1(C(=O)Nc2ccc(O)c(Cl)c2Cl)CCCCC1 [FENHEXAMID]
- Ratio EC50 (Oculimacula yallundae [7]): 1.2
- Ratio EC50 (Oculimacula yallundae [8]): 0.8
- Ratio EC50 (Oculimacula yallundae [9]): 2.5
- Ratio EC50 (Oculimacula yallundae [1]): 28
- Ratio EC50 (Oculimacula yallundae [2]): 33
- Ratio EC50 (Oculimacula yallundae [3]): 1
- Ratio EC50 (Oculimacula yallundae [4]): 1.2
- Ratio EC50 (Oculimacula yallundae [5]): 1.2
- Ratio EC50 (Oculimacula yallundae [10]): 1.7
- Ratio EC50 (Oculimacula yallundae [11]): 1.5
- Ratio EC50 [12]: 0.8
- EC50 (Oculimacula yallundae [13]): 0.4 mg/L
- EC50 (Oculimacula acuformis [14]): 0.32 mg/L
- Ratio EC50 [18]: 0.8
- EC50 (Oculimacula yallundae [6]): 0.06 mg/L (≈ 0.199 µM)
- EC50 (Oculimacula acuformis [15]): 0.05 mg/L (≈ 0.165 µM)
